Results reported in PubChem BioAssay AID743137 (The Scripps Research Institute Molecular Screening Center, 2013).
The source made the active and inactive calls.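 Rule for the calls: active = LYPLA1 and LYPLA2 each at a ratio of 0.5 or below, with under two anti-target hydrolases also at that level; inactive = the rest.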

Tests used:
Assay in all cases: SILAC ABPP off-target profiling in HeLa cells – cell-based, LC-MS, powders, selectivity assay for LYPLA1/LYPLA2 inhibitor project, late-stage follow-up (AID 743137)
[1] = target: Dipeptidyl peptidase 8 (Homo sapiens) (UniProt Q6V1X1); details: FP-biotin LC-MS, serine hydrolase panel, DPP8, at 1 µM, active compounds read low
Sequence of Dipeptidyl peptidase 8 (Homo sapiens) (Q6V1X1 whole entry, looked up): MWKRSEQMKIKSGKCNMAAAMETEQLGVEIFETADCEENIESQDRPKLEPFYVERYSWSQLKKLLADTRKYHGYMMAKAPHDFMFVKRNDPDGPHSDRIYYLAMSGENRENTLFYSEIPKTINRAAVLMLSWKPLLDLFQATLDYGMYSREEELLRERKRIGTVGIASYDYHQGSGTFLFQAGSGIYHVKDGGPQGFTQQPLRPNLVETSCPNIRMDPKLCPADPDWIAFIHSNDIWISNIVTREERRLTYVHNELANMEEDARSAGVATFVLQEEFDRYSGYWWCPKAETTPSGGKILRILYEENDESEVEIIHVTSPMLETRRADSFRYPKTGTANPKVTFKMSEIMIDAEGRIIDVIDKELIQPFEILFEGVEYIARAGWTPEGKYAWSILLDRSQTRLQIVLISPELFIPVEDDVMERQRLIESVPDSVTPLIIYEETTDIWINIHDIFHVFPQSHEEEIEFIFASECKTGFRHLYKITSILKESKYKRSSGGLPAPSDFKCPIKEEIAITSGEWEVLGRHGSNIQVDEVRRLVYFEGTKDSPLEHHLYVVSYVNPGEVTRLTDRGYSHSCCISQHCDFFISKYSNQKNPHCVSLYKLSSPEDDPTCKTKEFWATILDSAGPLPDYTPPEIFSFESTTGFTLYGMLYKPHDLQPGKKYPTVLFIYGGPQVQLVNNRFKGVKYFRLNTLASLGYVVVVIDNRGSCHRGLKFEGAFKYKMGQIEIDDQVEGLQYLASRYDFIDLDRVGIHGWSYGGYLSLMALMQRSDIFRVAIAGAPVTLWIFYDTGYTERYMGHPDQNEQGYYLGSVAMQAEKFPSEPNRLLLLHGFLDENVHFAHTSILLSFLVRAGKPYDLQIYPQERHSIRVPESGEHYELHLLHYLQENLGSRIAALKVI

[2] = target: Platelet-activating factor acetylhydrolase 2, cytoplasmic (Homo sapiens) (UniProt Q99487); details: FP-biotin LC-MS, serine hydrolase panel, PAFAH2, at 1 µM, active compounds read low
[3] = target: Acyl-protein thioesterase 2 (Homo sapiens) (UniProt O95372); details: FP-biotin LC-MS, serine hydrolase panel, LYPLA2, at 1 µM, active compounds read low
FAM108B1 = details: FP-biotin LC-MS, serine hydrolase panel, at 1 µM, active compounds read low
[4] = target: Prolyl endopeptidase FAP (Homo sapiens) (UniProt Q12884); details: FP-biotin LC-MS, serine hydrolase panel, at 1 µM, active compounds read low
Sequence of Prolyl endopeptidase FAP (Homo sapiens) (Q12884 whole entry, looked up): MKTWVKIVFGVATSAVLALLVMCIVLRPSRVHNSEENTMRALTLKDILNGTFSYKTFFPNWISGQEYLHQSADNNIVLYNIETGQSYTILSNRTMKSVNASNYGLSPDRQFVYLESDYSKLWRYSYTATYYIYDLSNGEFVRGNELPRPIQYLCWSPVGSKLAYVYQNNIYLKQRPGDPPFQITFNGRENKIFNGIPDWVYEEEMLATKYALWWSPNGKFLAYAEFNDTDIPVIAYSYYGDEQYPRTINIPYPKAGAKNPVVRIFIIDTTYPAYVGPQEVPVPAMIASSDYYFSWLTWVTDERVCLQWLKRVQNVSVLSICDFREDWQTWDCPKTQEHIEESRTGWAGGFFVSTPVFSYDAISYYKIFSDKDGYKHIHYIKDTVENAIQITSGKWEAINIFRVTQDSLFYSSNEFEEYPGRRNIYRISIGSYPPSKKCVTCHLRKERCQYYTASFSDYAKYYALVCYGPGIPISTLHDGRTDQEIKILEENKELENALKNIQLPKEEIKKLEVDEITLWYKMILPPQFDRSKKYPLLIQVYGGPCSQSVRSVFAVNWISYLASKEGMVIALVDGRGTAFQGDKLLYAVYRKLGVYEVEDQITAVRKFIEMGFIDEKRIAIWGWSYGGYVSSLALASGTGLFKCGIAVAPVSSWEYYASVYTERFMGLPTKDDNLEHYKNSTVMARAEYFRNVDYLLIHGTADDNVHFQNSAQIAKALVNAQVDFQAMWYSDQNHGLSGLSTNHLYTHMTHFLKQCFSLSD

NCEH1 = details: FP-biotin LC-MS, serine hydrolase panel, at 1 µM, active compounds read low
[5] = target: Acylamino-acid-releasing enzyme (Homo sapiens) (UniProt P13798); details: FP-biotin LC-MS, serine hydrolase panel, APEH, at 1 µM, active compounds read low
Sequence of Acylamino-acid-releasing enzyme (Homo sapiens) (P13798 whole entry, looked up): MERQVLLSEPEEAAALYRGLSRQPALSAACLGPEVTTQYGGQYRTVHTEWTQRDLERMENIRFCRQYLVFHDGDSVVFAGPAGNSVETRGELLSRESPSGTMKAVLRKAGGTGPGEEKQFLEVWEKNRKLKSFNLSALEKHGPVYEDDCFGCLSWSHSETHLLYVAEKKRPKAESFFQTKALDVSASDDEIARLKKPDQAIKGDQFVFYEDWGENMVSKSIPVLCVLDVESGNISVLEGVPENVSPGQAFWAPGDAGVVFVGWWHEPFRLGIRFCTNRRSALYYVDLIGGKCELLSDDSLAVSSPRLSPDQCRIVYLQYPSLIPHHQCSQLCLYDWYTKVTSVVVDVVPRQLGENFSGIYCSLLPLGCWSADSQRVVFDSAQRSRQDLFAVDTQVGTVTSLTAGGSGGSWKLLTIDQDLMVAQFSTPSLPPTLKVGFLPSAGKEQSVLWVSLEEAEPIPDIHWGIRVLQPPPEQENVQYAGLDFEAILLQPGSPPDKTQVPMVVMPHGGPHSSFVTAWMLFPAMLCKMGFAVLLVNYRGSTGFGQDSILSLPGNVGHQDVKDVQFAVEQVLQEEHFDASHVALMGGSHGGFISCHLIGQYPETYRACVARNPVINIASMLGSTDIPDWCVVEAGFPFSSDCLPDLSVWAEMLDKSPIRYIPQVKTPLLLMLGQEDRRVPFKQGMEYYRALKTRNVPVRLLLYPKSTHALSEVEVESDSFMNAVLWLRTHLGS

ABHD10 = details: FP-biotin LC-MS, serine hydrolase panel, at 1 µM, active compounds read low
PNPLA6 = details: FP-biotin LC-MS, serine hydrolase panel, at 1 µM, active compounds read low
[6] = target: Acyl-coenzyme A thioesterase 2, mitochondrial (Homo sapiens) (UniProt P49753); details: FP-biotin LC-MS, serine hydrolase panel, ACOT2, at 1 µM, active compounds read low
Sequence of Acyl-coenzyme A thioesterase 2, mitochondrial (Homo sapiens) (P49753 whole entry, looked up): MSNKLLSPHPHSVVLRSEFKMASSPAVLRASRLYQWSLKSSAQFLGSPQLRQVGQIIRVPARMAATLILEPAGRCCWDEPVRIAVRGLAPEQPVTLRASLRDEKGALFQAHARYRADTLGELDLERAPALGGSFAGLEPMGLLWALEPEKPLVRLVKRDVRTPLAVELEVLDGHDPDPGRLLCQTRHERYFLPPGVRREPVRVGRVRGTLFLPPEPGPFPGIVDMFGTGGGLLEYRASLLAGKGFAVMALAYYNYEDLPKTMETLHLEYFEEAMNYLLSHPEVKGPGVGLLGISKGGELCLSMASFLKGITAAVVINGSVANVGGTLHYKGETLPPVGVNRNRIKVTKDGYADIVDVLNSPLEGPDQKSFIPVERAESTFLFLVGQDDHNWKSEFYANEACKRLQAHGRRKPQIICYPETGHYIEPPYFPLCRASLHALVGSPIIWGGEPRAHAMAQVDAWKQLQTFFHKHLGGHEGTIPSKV

SCPEP1 = details: FP-biotin LC-MS, serine hydrolase panel, at 1 µM, active compounds read low
[7] = target: Acyl-protein thioesterase 1 (Homo sapiens) (UniProt O75608); details: FP-biotin LC-MS, serine hydrolase panel, LYPLA1, at 1 µM, active compounds read low
FAM111B = FAM111B (UniProt Q6SJ93); details: FP-biotin LC-MS, serine hydrolase panel, at 1 µM, active compounds read low
Sequence of FAM111B (Q6SJ93 whole entry, looked up): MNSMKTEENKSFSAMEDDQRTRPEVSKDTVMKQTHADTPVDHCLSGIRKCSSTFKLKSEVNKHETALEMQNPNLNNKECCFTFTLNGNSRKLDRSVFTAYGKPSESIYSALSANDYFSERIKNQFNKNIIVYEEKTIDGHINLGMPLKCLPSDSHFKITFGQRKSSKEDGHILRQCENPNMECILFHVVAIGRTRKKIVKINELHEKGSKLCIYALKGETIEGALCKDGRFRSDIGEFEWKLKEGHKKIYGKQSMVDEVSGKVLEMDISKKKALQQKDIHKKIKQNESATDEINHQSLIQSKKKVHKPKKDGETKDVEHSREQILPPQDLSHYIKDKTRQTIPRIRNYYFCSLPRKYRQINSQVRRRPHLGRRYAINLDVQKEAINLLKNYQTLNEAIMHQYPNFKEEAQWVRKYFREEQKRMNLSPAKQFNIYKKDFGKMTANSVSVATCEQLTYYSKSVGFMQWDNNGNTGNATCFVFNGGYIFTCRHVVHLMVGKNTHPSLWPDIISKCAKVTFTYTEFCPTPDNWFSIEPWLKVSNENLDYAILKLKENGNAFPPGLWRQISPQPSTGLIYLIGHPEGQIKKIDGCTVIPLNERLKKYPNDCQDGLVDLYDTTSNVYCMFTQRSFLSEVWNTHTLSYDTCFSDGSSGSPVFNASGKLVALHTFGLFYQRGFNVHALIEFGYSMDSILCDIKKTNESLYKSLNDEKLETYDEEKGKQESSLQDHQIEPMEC

[8] = target: Lysosomal Pro-X carboxypeptidase (Homo sapiens) (UniProt P42785); details: FP-biotin LC-MS, serine hydrolase panel, PRCP, at 1 µM, active compounds read low
LYPLAL1 = details: FP-biotin LC-MS, serine hydrolase panel, at 1 µM, active compounds read low
PNPLA4 = PNPLA4 (UniProt P41247); details: FP-biotin LC-MS, serine hydrolase panel, at 1 µM, active compounds read low
Sequence of PNPLA4 (P41247 whole entry, looked up): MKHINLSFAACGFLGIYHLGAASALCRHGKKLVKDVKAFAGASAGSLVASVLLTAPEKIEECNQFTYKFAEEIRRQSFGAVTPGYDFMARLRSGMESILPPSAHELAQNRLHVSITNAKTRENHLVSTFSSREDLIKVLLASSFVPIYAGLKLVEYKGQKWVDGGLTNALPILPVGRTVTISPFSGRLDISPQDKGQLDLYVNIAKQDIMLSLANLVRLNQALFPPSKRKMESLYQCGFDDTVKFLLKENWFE

ABHD6 = details: FP-biotin LC-MS, serine hydrolase panel, at 1 µM, active compounds read low
[9] = target: sn-1-specific diacylglycerol lipase ABHD11 (Homo sapiens) (UniProt Q8NFV4); details: FP-biotin LC-MS, serine hydrolase panel, at 1 µM, active compounds read low
[10] = target: Lysosomal protective protein (Homo sapiens) (UniProt P10619); details: FP-biotin LC-MS, serine hydrolase panel, CTSA, at 1 µM, active compounds read low
Sequence of Lysosomal protective protein (Homo sapiens) (P10619 whole entry, looked up): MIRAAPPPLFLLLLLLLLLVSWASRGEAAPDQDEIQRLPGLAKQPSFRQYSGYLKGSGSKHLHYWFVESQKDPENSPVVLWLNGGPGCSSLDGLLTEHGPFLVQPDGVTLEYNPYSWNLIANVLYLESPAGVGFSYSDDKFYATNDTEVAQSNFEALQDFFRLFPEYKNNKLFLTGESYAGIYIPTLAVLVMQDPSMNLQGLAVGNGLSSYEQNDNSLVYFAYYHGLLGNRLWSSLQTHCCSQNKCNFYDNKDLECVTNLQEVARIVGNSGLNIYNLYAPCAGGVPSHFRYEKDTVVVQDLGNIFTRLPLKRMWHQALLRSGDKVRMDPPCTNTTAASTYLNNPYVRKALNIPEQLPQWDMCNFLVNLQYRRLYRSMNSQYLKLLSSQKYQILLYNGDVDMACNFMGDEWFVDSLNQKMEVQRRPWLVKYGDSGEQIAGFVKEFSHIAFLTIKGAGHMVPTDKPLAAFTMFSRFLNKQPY

[11] = target: Lysosomal phospholipase A and acyltransferase (Homo sapiens) (UniProt Q8NCC3); details: FP-biotin LC-MS, serine hydrolase panel, PLA2G15, at 1 µM, active compounds read low
Sequence of Lysosomal phospholipase A and acyltransferase (Homo sapiens) (Q8NCC3 whole entry, looked up): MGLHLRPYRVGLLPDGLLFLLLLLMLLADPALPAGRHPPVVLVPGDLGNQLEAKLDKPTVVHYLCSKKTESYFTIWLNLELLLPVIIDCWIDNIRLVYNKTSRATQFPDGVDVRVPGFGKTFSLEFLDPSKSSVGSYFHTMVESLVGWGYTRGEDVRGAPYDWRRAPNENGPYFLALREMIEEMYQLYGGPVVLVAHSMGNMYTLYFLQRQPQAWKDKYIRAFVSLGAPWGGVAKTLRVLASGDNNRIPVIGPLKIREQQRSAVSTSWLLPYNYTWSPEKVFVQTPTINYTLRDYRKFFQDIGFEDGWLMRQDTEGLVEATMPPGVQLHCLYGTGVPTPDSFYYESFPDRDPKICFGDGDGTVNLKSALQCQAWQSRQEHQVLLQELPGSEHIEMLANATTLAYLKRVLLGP

[12] = target: Platelet-activating factor acetylhydrolase IB subunit alpha1 (Homo sapiens) (UniProt Q15102); details: FP-biotin LC-MS, serine hydrolase panel, PAFAH1B3, at 1 µM, active compounds read low
ESD = details: FP-biotin LC-MS, serine hydrolase panel, at 1 µM, active compounds read low
[13] = target: Platelet-activating factor acetylhydrolase IB subunit alpha2 (Homo sapiens) (UniProt P68402); details: FP-biotin LC-MS, serine hydrolase panel, PAFAH1B2, at 1 µM, active compounds read low
Sequence of Platelet-activating factor acetylhydrolase IB subunit alpha2 (Homo sapiens) (P68402 whole entry, looked up): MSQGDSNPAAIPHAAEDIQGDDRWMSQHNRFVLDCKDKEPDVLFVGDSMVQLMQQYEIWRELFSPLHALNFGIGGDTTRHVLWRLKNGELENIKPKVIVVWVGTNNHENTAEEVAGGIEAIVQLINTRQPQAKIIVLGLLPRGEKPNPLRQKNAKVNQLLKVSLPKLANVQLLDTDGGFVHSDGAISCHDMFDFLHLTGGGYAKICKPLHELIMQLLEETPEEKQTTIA

[14] = target: Prolyl endopeptidase-like (Homo sapiens) (UniProt Q4J6C6); details: FP-biotin LC-MS, serine hydrolase panel, PREPL, at 1 µM, active compounds read low
ABHD12 = details: FP-biotin LC-MS, serine hydrolase panel, at 1 µM, active compounds read low
MAGL (MGLL) = details: FP-biotin LC-MS, serine hydrolase panel, at 1 µM, active compounds read low

## O=C(ON1C(=O)C2CN(C(=O)N3CCOCC3)CCN2C1=O)N1CCC(CCc2ccc(Cl)cc2)CC1 (stereo unspecified)
[1]
  inhibitor/DMSO ratio: 1.4 (inactive)
[2]
  inhibitor/DMSO ratio: 1.4 (inactive)
[3]
  inhibitor/DMSO ratio: 0.084
FAM108B1
  inhibitor/DMSO ratio: 0.98 (inactive)
[4]
  inhibitor/DMSO ratio: 1 (inactive)
NCEH1
  inhibitor/DMSO ratio: 0.98 (inactive)
[5]
  inhibitor/DMSO ratio: 1.3 (inactive)
ABHD10
  inhibitor/DMSO ratio: 1.3 (inactive)
PNPLA6
  inhibitor/DMSO ratio: 1.2 (inactive)
[6]
  inhibitor/DMSO ratio: 1.4 (inactive)
SCPEP1
  inhibitor/DMSO ratio: 0.93 (inactive)
[7]
  inhibitor/DMSO ratio: 0.05
FAM111B
  inhibitor/DMSO ratio: 1.4 (inactive)
[8]
  inhibitor/DMSO ratio: 0.93 (inactive)
LYPLAL1
  inhibitor/DMSO ratio: 1.7 (inactive)
PNPLA4
  inhibitor/DMSO ratio: 1.2 (inactive)
ABHD6
  inhibitor/DMSO ratio: 0.05
[9]
  inhibitor/DMSO ratio: 1.3 (inactive)
[10]
  inhibitor/DMSO ratio: 1.1 (inactive)
[11]
  inhibitor/DMSO ratio: 1.4 (inactive)
[12]
  inhibitor/DMSO ratio: 1.4 (inactive)
ESD
  inhibitor/DMSO ratio: 1.2 (inactive)
[13]
  inhibitor/DMSO ratio: 1.2 (inactive)
[14]
  inhibitor/DMSO ratio: 1.5 (inactive)
ABHD12
  inhibitor/DMSO ratio: 0.83 (inactive)
MAGL (MGLL)
  inhibitor/DMSO ratio: 0.57 (inactive)
